{"source": "ChEMBL document CHEMBL1157075", "about": "“Antiangiogenic metabolites from a marine-derived fungus, Hypocrea vinosa” (J Nat Prod, 2010)", "key": {"[1]": {"species_on_record": "Mus musculus", "assay": "Toxicity in mouse assessed as reduction of body weight", "assay_type": "organism-based", "conditions": "in vivo"}, "[2]": {"tested_on": "P388", "assay": "Antitumor activity against mouse P388 cells xenografted in mouse", "assay_type": "functional"}, "[3]": {"tested_on": "HUVEC", "assay": "Inhibition of VEGF-induced HUVEC migration at 1 ug/ml after 22 hrs by microscopy", "assay_type": "functional", "conditions": "Homo sapiens"}, "[4]": {"tested_on": "HUVEC", "assay": "Antiangiogenic activity against HUVEC assessed as inhibition VEGF-stimulated tubule formation at 10 ug/ml after 11 days by microscopy", "assay_type": "functional, cell-based", "conditions": "Homo sapiens"}, "[5]": {"tested_on": "HUVEC", "assay": "Antiproliferative activity against HUVEC after 72 hrs by MTT assay", "assay_type": "cell-based", "conditions": "Homo sapiens"}, "[6]": {"tested_on": "HUVEC", "assay": "Inhibition of protein tyrosine kinase in HUVEC lysates at 1 ug/ml after 2 hrs", "assay_type": "cell-based", "conditions": "Homo sapiens"}, "[7]": {"tested_on": "HeLa", "assay": "Cytotoxicity against human HeLa cells after 72 hrs by WST8 assay", "assay_type": "functional, cell-based"}, "[8]": {"assay": "Inhibition of protein tyrosine kinase in HUVEC lysates after 2 hrs", "assay_type": "cell-based, Homo sapiens"}, "[9]": {"tested_on": "HUVEC", "assay": "Inhibition of VEGF-induced HUVEC migration after 22 hrs by microscopy", "assay_type": "functional, cell-based", "conditions": "Homo sapiens"}, "[10]": {"tested_on": "NHDF", "assay": "Antiangiogenic activity against NHDF assessed as inhibition VEGF-stimulated tubule formation at 10 ug/ml after 11 days by microscopy", "assay_type": "functional, cell-based", "conditions": "Homo sapiens"}, "[11]": {"tested_on": "HUVEC", "assay": "Inhibition of protein tyrosine kinase in HUVEC lysates at 100 ug/ml after 2 hrs", "assay_type": "cell-based", "conditions": "Homo sapiens"}, "[12]": {"tested_on": "HUVEC", "assay": "Inhibition of VEGF-induced HUVEC migration at 10 ug/ml after 22 hrs by microscopy", "assay_type": "functional", "conditions": "Homo sapiens"}, "[13]": {"tested_on": "NHDF", "assay": "Cytotoxicity against NHDF after 72 hrs by WST8 assay", "assay_type": "cell-based", "conditions": "Homo sapiens"}, "[14]": {"tested_on": "HUVEC", "assay": "Inhibition of VEGF-induced HUVEC migration at 0.1 ug/ml after 22 hrs by microscopy", "assay_type": "functional", "conditions": "Homo sapiens"}, "[15]": {"tested_on": "HUVEC", "assay": "Inhibition of protein tyrosine kinase in HUVEC lysates at 10 ug/ml after 2 hrs", "assay_type": "cell-based", "conditions": "Homo sapiens"}, "[16]": {"tested_on": "P388", "assay": "Antitumor activity against mouse P388 cells xenografted in mouse at 20 mg/kg", "assay_type": "functional, organism-based", "design": "dose 20 mg/kg"}, "[17]": {"tested_on": "Mus musculus", "assay": "Toxicity in mouse at 60 mg/kg", "assay_type": "organism-based", "design": "dose 60 mg/kg", "conditions": "in vivo"}}, "note": "Calls of active or inactive are those of the source. The rule behind the calls is not given here."}
{"smiles": "CC1CC(=O)c2c(cc3c(-c4c(O)cc(O)c5c(O)c6c(cc45)O[C@H](C)[C@@H](C)C6=O)c(O)cc(O)c3c2O)O1", "note": "(stereo not given in full) [CHAETOCHROMIN C]", "values": [{"measurement": "Activity", "setting": "[1]", "result": "Toxic"}, {"measurement": "Activity", "setting": "[2]", "result": "Active"}]}
{"smiles": "CC(=O)Cc1cc(=O)c2c(O)c3c(O)cc(O)c(-c4c(O)cc(O)c5c(O)c6c(=O)cc(CC(C)=O)oc6cc45)c3cc2o1", "values": [{"measurement": "inhibition at 1 µg/mL", "setting": "[3]", "result": 57.8, "unit": "%"}, {"measurement": "inhibition", "setting": "[4]", "result": "Active"}, {"measurement": "IC50", "setting": "[5]", "result": 17.4, "unit": "µM"}, {"measurement": "inhibition", "setting": "[6]", "result": 11, "unit": "%"}, {"measurement": "IC50", "setting": "[7]", "result": 209, "unit": "µM"}, {"measurement": "IC50", "setting": "[8]", "result": 42.1, "unit": "µM"}, {"measurement": "IC50", "setting": "[9]", "result": 1.09, "unit": "µM"}, {"measurement": "inhibition", "setting": "[10]", "result": "Active"}, {"measurement": "inhibition", "setting": "[11]", "result": 66.2, "unit": "%"}, {"measurement": "inhibition at 10 µg/mL", "setting": "[12]", "result": 86.7, "unit": "%"}, {"measurement": "IC50", "setting": "[13]", "result": "> 500", "unit": "µM"}, {"measurement": "inhibition at 0.1 µg/mL", "setting": "[14]", "result": 20, "unit": "%"}, {"measurement": "inhibition", "setting": "[15]", "result": 38.3, "unit": "%"}]}
{"smiles": "C[C@@H]1Oc2cc3c(-c4c(O)cc(O)c5c(O)c6c(cc45)O[C@H](C)[C@@H](C)C6=O)c(O)cc(O)c3c(O)c2C(=O)[C@@H]1C", "note": "[CHAETOCHROMIN B]", "values": [{"measurement": "Activity", "setting": "[1]", "result": "Toxic"}, {"measurement": "Activity", "setting": "[2]", "result": "Active"}]}
{"smiles": "Cc1oc2cc3c(-c4c(O)cc(O)c5c(O)c6c(cc45)O[C@@H](C)[C@H](C)C6=O)c(O)cc(O)c3c(O)c2c(=O)c1C", "note": "[CHAETOCHROMIN D]", "values": [{"measurement": "Activity", "setting": "[1]", "result": "Toxic"}, {"measurement": "Activity", "setting": "[2]", "result": "Active"}]}
{"smiles": "Cc1cc(=O)c2c(O)c3c(O)cc(O)c(-c4c(O)cc(O)c5c(O)c6c(cc45)OC(C)CC6=O)c3cc2o1", "note": "(stereo not given) [USTILAGINOIDIN G]", "values": [{"measurement": "Activity", "setting": "[1]", "result": "Toxic"}, {"measurement": "Activity", "setting": "[2]", "result": "Active"}]}
{"smiles": "CC(=O)Cc1cc(=O)c2c(O)c3c(O)cc(O)c(-c4c(O)cc(O)c5c(O)c6c(=O)cc(CC(C)O)oc6cc45)c3cc2o1", "note": "(stereo not given) [HYPOCHROMIN A]", "values": [{"measurement": "inhibition at 1 µg/mL", "setting": "[3]", "result": 62.2, "unit": "%"}, {"measurement": "inhibition", "setting": "[4]", "result": "Active"}, {"measurement": "IC50", "setting": "[5]", "result": 50, "unit": "µM"}, {"measurement": "inhibition", "setting": "[6]", "result": 0, "unit": "%"}, {"measurement": "IC50", "setting": "[8]", "result": 58.7, "unit": "µM"}, {"measurement": "IC50", "setting": "[9]", "result": 0.87, "unit": "µM"}, {"measurement": "inhibition", "setting": "[10]", "result": "Active"}, {"measurement": "inhibition", "setting": "[11]", "result": 73.4, "unit": "%"}, {"measurement": "inhibition at 10 µg/mL", "setting": "[12]", "result": 100, "unit": "%"}, {"measurement": "inhibition at 0.1 µg/mL", "setting": "[14]", "result": 28.9, "unit": "%"}, {"measurement": "inhibition", "setting": "[15]", "result": 21.9, "unit": "%"}]}
{"smiles": "CC(=O)Cc1cc(=O)c2c(O)c3c(O)cc(O)c(-c4c(O)cc(O)c5c(O)c6c(=O)cc(C)oc6cc45)c3cc2o1", "note": "[HYPOCHROMIN B]", "values": [{"measurement": "inhibition at 1 µg/mL", "setting": "[3]", "result": 53.3, "unit": "%"}, {"measurement": "inhibition", "setting": "[4]", "result": "Active"}, {"measurement": "IC50", "setting": "[5]", "result": 13.1, "unit": "µM"}, {"measurement": "inhibition", "setting": "[6]", "result": 12.4, "unit": "%"}, {"measurement": "IC50", "setting": "[8]", "result": 18, "unit": "µM"}, {"measurement": "IC50", "setting": "[9]", "result": 1.51, "unit": "µM"}, {"measurement": "inhibition", "setting": "[10]", "result": "Active"}, {"measurement": "inhibition", "setting": "[11]", "result": 72.4, "unit": "%"}, {"measurement": "inhibition at 10 µg/mL", "setting": "[12]", "result": 95.6, "unit": "%"}, {"measurement": "inhibition at 0.1 µg/mL", "setting": "[14]", "result": 33.3, "unit": "%"}, {"measurement": "inhibition", "setting": "[15]", "result": 50, "unit": "%"}]}
{"smiles": "C[C@H]1Oc2cc3c(-c4c(O)cc(O)c5c(O)c6c(cc45)O[C@H](C)[C@@H](C)C6=O)c(O)cc(O)c3c(O)c2C(=O)[C@@H]1C", "values": [{"measurement": "Activity", "setting": "[16]", "result": "Active"}]}
{"smiles": "Cc1cc(=O)c2c(O)c3c(O)cc(O)c(-c4c(O)cc(O)c5c(O)c6c(=O)cc(C)oc6cc45)c3cc2o1", "note": "[USTILAGINOIDIN A]", "values": [{"measurement": "Activity", "setting": "[17]", "result": "Toxic"}]}
